Data set [1] addresses Vasopressin V1a receptor (Homo sapiens) (UniProt P37288). The experiment in a line: Antagonist activity at human Gq5s-coupled V1a receptor expressed in CHO cells assessed as inhibition of vasopressin-induced calcium flux preincubated for 20 mins followed by vasopressin addition and measured for 5 mins by fluo-4-AM dye based FLIPR assay. Type of data set: functional, cell-based.

Data set [2] is described as follows: Selectivity ratio of Kb for antagonist activity at human V2 receptor to Kb for antagonist activity at human Gq5s-coupled V1a receptor expressed in CHO cells.
The nature of data set [3]: Selectivity ratio of Kb for antagonist activity at human […] receptor to Kb for antagonist activity at human Gq5s-coupled V1a receptor expressed in CHO cells.
A short description of data set [4]: Clearance in iv dosed rat relative to hepatic blood flow. Type of data set: ADME, organism-based. Particulars: in vivo.
Data set [5] in a line: Volume of distribution at steady state in iv dosed rat. Conditions: in vivo, read-out: Vdss. The format is ADME, organism-based.
The nature of data set [6]: Half life in iv dosed rat. The format is ADME, organism-based. Particulars: in vivo.
Data set [7] deals with Rattus norvegicus. The data set can be described thus: In vivo receptor occupancy at V1a receptor in stress hyperresponsive Fischer F344 rat at 30 mg/kg, iv administered as bolus dose via catheter. Type of data set: functional.
For data set [8], the system named is Rattus norvegicus. The experiment in a line: Neuroprotective activity in stress hyperresponsive Fischer F344 rat assessed as increase in perfusion in substantia nigra at 30 mg/kg, iv administered as bolus dose via catheter by ASL-based MRI analysis. The format is functional, organism-based.
Data set [9] deals with Rattus norvegicus. The experiment in a line: Neuroprotective activity in stress hyperresponsive Fischer F344 rat assessed as increase in perfusion in ventral tegmental area at 30 mg/kg, iv administered as bolus dose via catheter by ASL-based MRI analysis. Type of data set: functional, organism-based.
Data set [10] concerns Rattus norvegicus. The data set can be described thus: Neuroprotective activity in stress hyperresponsive Fischer F344 rat assessed as increase in perfusion in hypothalamus at 30 mg/kg, iv administered as bolus dose via catheter by ASL-based MRI analysis. Type of data set: functional, organism-based.
The subject of data set [11] is Rattus norvegicus. The data set can be described thus: Neuroprotective activity in stress hyperresponsive Fischer F344 rat assessed as increase in perfusion in raphe nuclei at 30 mg/kg, iv administered as bolus dose via catheter by ASL-based MRI analysis. Type of data set: functional, organism-based.
For data set [12], the system named is Rattus norvegicus. The data set can be described thus: Neuroprotective activity in iv dosed stress hyperresponsive Fischer F344 rat assessed as improvement in neural activity pattern administered as bolus dose via catheter by ASL-based MRI analysis. The format is functional, organism-based.
Data set [13] has as its target MDR1 (ABCB1, P-glycoprotein) (Homo sapiens, UniProt P08183). The data set can be described thus: Substrate activity at human MDR1 expressed in LLC-PK1 cells assessed as efflux ratio of permeability at 1 uM measured after 3.5 hrs by lucifer yellow based scintillation counting or HPLC method. The format is ADME, cell-based.
The nature of data set [14]: Water/octanol distribution coefficient, log D of the compound at pH 7.4 measured after 18 hrs by LC-MS analysis. Type of data set: physicochemical.
Data set [15] can be described thus: Half life in iv dosed human. The format is ADME, organism-based. Particulars: in vivo.
In data set [16] the target is 5-hydroxytryptamine receptor 2B (Homo sapiens) (UniProt P41595). The data set can be described thus: Antagonist activity at recombinant human 5HT2B receptor expressed in CHOK1 cells assessed as inhibition of serotonin-induced inositol phosphate production measured after 30 mins by HTRF assay. The format is functional, cell-based.
Sequence of 5-hydroxytryptamine receptor 2B (Homo sapiens) (P41595 whole entry): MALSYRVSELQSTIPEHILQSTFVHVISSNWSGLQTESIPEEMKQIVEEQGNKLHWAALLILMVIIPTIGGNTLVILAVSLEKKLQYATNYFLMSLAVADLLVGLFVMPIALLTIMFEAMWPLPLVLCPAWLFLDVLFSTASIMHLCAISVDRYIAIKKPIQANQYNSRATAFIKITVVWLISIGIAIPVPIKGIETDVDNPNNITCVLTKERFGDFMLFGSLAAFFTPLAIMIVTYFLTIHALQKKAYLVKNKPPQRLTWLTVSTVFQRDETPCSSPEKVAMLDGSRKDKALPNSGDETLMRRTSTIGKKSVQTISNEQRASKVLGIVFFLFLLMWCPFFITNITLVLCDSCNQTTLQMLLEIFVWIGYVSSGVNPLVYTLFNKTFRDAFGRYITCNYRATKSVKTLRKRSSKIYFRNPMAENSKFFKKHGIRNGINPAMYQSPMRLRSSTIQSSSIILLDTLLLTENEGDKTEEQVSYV
The species named for a further data set is Homo sapiens. The data set can be described thus: Selectivity ratio of Kb for antagonist activity at recombinant human 5HT2B receptor expressed in CHOK1 cells to Kb for antagonist activity at human Gq5s-coupled V1a receptor expressed in CHO cells. Type of data set: cell-based.
Data set [17] can be described thus: Volume of distribution in rat. The format is ADME. Conditions: in vivo.
Data set [18] can be described thus: Volume of distribution in dog. Type of data set: ADME, Canis lupus familiaris. Particulars: in vivo.
The nature of data set [19]: Volume of distribution in cynomolgus monkey. Type of data set: ADME, Macaca fascicularis. Particulars: in vivo.
Data set [20] can be described thus: Oral bioavailability in rat. Type of data set: ADME, organism-based. Conditions: in vivo.
Data set [21] in a line: Oral bioavailability in cynomolgus monkey. The format is ADME, organism-based, Macaca fascicularis. Conditions: in vivo.
Data set [22] can be described thus: Protein binding in human plasma assessed as unbound fraction. The format is ADME, cell-free.
Data set [23] has as its system Rattus norvegicus. The experiment in a line: Neuroprotective activity in stress hyperresponsive Fischer F344 rat assessed as change in perfusion in medial prefrontal at 30 mg/kg, iv administered as bolus dose via catheter by ASL-based MRI analysis relative to control. The format is functional.
Data set [24] has as its system Rattus norvegicus. The experiment in a line: Neuroprotective activity in stress hyperresponsive Fischer F344 rat assessed as change in perfusion in primary motor cortex at 30 mg/kg, iv administered as bolus dose via catheter by ASL-based MRI analysis relative to control. Type of data set: functional.
Data set [25] deals with Rattus norvegicus. The data set can be described thus: Neuroprotective activity in stress hyperresponsive Fischer F344 rat assessed as change in perfusion in visual cortex at 30 mg/kg, iv administered as bolus dose via catheter by ASL-based MRI analysis relative to control. The format is functional.
Data set [26] deals with Rattus norvegicus. The experiment in a line: Neuroprotective activity in stress hyperresponsive Fischer F344 rat assessed as increase in perfusion in entorhinal piriform cortex at 30 mg/kg, iv administered as bolus dose via catheter by ASL-based MRI analysis. Type of data set: functional, organism-based.
Data set [27] concerns Rattus norvegicus. The experiment in a line: Neuroprotective activity in stress hyperresponsive Fischer F344 rat assessed as increase in perfusion in amygdala at 30 mg/kg, iv administered as bolus dose via catheter by ASL-based MRI analysis. The format is functional, organism-based.
Data set [28] relates to Rattus norvegicus. The experiment in a line: Neuroprotective activity in stress hyperresponsive Fischer F344 rat assessed as change in perfusion in caudate putamen at 30 mg/kg, iv administered as bolus dose via catheter by ASL-based MRI analysis. Type of data set: functional, organism-based.
Data set [29] relates to Rattus norvegicus. The data set can be described thus: Neuroprotective activity in stress hyperresponsive Fischer F344 rat assessed as change in perfusion in dorsal hippocampus at 30 mg/kg, iv administered as bolus dose via catheter by ASL-based MRI analysis. The format is functional, organism-based.
For data set [30], the system named is Rattus norvegicus. The data set can be described thus: Neuroprotective activity in stress hyperresponsive Fischer F344 rat assessed as change in perfusion in superior colliculi at 30 mg/kg, iv administered as bolus dose via catheter by ASL-based MRI analysis. Type of data set: functional, organism-based.
Data set [31] deals with Rattus norvegicus. The experiment in a line: Neuroprotective activity in stress hyperresponsive Fischer F344 rat assessed as change in perfusion in inferior colliculi at 30 mg/kg, iv administered as bolus dose via catheter by ASL-based MRI analysis. The format is functional, organism-based.

Active and inactive are the calls of the source. The rule behind the calls is not given here. Where only a bound is given, the exact number is not on record here.

Sequence of Vasopressin V1a receptor (Homo sapiens) (P37288 whole entry, looked up): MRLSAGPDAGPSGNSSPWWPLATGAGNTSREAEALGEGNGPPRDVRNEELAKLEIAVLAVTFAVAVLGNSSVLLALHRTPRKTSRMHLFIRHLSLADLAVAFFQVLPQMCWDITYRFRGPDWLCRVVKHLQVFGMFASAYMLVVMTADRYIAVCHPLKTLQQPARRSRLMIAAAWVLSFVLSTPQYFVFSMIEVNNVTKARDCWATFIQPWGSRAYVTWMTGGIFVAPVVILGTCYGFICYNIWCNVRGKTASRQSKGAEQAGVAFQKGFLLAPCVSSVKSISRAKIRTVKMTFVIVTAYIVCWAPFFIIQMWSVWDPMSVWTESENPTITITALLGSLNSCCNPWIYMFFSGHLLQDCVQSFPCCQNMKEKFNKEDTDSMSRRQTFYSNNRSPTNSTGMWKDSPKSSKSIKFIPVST
Sequence of MDR1 (ABCB1, P-glycoprotein) (P08183 whole entry): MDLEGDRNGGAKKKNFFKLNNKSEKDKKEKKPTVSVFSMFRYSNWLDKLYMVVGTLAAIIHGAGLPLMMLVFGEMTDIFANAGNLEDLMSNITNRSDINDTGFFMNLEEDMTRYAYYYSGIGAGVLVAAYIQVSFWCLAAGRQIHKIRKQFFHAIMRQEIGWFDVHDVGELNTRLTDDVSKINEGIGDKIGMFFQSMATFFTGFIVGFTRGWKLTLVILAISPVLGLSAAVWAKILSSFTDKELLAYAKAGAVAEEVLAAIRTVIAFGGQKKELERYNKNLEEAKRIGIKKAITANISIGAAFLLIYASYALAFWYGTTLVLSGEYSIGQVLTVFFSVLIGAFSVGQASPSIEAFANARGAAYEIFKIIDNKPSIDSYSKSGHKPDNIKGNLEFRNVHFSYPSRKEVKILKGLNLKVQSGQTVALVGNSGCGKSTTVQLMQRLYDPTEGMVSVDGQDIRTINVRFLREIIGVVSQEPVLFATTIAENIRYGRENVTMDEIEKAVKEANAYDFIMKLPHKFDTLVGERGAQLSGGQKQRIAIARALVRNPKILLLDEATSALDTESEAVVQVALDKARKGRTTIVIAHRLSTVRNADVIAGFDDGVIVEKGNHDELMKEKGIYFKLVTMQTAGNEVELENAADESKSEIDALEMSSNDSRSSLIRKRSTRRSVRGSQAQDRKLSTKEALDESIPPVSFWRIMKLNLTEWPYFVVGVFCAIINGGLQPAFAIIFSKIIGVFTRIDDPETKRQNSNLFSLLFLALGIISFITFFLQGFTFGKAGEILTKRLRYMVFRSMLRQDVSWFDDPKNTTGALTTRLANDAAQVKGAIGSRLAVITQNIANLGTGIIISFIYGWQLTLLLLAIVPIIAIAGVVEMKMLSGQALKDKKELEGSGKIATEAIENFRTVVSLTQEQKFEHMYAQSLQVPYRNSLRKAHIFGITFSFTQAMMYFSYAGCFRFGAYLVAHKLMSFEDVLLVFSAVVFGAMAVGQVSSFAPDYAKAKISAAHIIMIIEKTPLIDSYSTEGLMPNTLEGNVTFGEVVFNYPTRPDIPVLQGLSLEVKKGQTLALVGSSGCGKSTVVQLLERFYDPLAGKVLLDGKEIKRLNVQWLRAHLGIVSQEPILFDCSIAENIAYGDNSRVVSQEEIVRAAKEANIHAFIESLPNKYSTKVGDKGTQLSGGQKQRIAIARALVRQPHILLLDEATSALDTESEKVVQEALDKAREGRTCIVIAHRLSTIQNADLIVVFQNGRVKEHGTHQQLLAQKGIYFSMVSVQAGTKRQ

`CN1Cc2cc(Cl)ccc2-n2c(nnc2-c2ccc(-c3ccccc3)cc2)C1`: in [1], the antagonist equilibrium constant (Kb) was determined as 12 nM. Moreover, the negative logarithm of the Kb (pKb) in data set [1] stood at 8.6. Also, the Selectivity ratio is given as 30 in data set [2] and 13 in [3]. Also, in data set [4], the clearance was in the range of 50 to 60%. The Vd in data set [5] fell in the range of 4 to 6 L/kg. For the same molecule, in data set [6], the half-life was 1.5 h. Also, the Occ in the data set on Rattus norvegicus [7] was >90%. For the same molecule, the outcome with Rattus norvegicus [8], in the data set with Rattus norvegicus [9], in the data set with Rattus norvegicus [10] and with Rattus norvegicus [11] was Active. For the same molecule, the Activity result with Rattus norvegicus [12] is “Dose-dependent effect”.

Take `Clc1ccc2c(c1)CNCc1nnc([C@H]3CC[C@H](Oc4ccccc4)CC3)n1-2`: the pKb in data set [1] amounted to 8.7. In addition, the Selectivity ratio is 523 in data set [2] and 430 in data set [3]. In addition, in data set [13], the efflux ratio at 3.5 h, 1 µM was found to be 4.3. The log distribution coefficient (logD) at 18 h in data set [14] was 2.7.

As to `CN(C)CCn1cc(C(=O)N2CCC3(CC2)OCc2ccccc23)c2ccc(Cl)cc21` [RO-5028442], the half-life in data set [15] was 8 h.

For `CN1Cc2cc(Cl)ccc2-n2c(nnc2[C@H]2CC[C@H](Oc3ccccn3)CC2)C1` [BALOVAPTAN], the values for the Kb in data set [1] and in data set [16] were 0.39 nM and 366 nM, respectively. Also, the Selectivity ratio in [2] was found to be 3888; in [3], 2735; in the data set filed under Homo sapiens it was 938. The efflux ratio at 3.5 h, 1 µM in [13] is < 2. Moreover, the Vd in data set [17], in [18] and in data set [19] was 0.5 to 1.3 L/kg in each case. Moreover, the results for the bioavailability in data set [20] and in data set [21] were 40% and 130%, respectively. Besides, in data set [22], the unbound share (fraction unbound) stood at 0.13. In addition, the Occ with Rattus norvegicus [7] is given as >90%. The Activity in the data set with Rattus norvegicus [23] was -20%; in the data set on Rattus norvegicus [24], -20%; with Rattus norvegicus [25], -20%; in the data set with Rattus norvegicus [12], “Dose-dependent effect”. Also, the result in the data set with Rattus norvegicus [8], with Rattus norvegicus [9], in the data set on Rattus norvegicus [26], in the data set on Rattus norvegicus [10], with Rattus norvegicus [11] and with Rattus norvegicus [27] was Active. The outcome with Rattus norvegicus [28], with Rattus norvegicus [29], with Rattus norvegicus [30] and in the data set on Rattus norvegicus [31] was Active.

For the origin of these results see ChEMBL document CHEMBL4354844, “Discovery of Balovaptan, a Vasopressin 1a Receptor Antagonist for the Treatment of Autism Spectrum Disorder” (J Med Chem, 2020).
